# Molecular target: T1, recombinant guanylate cyclase reporter cell line (Rattus norvegicus, UniProt P19686+P20595)
# T1 construct: expressed in transfected cells; host or cells: recombinant reporter cell line
# T1 sequence (P19686 1-690): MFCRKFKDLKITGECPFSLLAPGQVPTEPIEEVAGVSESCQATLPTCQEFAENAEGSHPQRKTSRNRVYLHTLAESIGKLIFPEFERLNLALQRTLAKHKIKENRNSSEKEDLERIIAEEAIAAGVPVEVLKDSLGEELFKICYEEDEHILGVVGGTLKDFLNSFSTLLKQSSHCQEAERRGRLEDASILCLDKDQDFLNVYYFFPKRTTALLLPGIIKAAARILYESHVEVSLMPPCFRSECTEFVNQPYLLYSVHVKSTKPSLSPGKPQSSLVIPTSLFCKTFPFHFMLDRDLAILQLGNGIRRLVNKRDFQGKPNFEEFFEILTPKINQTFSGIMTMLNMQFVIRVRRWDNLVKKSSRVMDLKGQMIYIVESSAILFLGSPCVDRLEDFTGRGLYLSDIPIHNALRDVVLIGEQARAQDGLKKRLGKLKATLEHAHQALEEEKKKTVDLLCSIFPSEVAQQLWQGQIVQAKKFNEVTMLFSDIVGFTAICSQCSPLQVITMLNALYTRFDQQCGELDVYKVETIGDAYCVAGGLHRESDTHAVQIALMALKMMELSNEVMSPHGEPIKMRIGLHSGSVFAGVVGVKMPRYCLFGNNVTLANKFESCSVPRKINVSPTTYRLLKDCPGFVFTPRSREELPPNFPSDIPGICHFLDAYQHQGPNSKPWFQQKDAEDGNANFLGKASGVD
# T1 sequence (P20595 1-619): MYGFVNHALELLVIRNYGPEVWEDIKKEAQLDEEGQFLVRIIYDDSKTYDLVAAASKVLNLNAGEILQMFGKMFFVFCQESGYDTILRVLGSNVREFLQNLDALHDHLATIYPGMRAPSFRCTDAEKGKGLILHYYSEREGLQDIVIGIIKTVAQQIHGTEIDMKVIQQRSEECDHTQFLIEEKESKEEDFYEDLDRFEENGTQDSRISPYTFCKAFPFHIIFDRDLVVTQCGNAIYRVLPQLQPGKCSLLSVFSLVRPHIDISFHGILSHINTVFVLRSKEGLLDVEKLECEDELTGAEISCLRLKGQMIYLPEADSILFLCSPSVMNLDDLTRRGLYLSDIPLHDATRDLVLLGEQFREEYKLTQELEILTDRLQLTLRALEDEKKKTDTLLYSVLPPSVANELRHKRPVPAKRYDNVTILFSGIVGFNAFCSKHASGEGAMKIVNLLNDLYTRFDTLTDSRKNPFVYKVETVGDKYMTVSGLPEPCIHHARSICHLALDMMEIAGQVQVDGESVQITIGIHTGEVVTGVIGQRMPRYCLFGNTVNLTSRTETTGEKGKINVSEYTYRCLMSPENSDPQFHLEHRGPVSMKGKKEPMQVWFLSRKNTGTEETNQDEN
# Experiment: Action on recombinant guanylate cyclase reporter cell line
# Format: cell-based
# Conditions: in some cases mean values from individual determinations
# Procedure, shortened: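 MEC values, meaning the lowest concentration producing a detectable response, were taken from a recombinant cyclase reporter cell assay. Where repeated, individual determinations were averaged.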
row,SMILES,MEC (minimal effective concentration) [µM]
1,"COCC(CN)NC(=O)c1c(C)nc2c(OCc3c(F)cccc3F)cccn12 (single isomer, unassigned) [Example 122, ent-N-(1-Amino-3-methoxypropan-2-yl)-8-[(2,6-difluorobenzyl)oxy]-2-methylimidazo[1,2-a]-pyridine-3-carboxamide ditrifluoroacetate]",1.00
2,"CCCC[C@H](CN1CCN(C)CC1)NC(=O)c1c(C)nc2c(OCc3c(F)cccc3F)cccn12 [Example 67, ent-8-[(2,6-difluorobenzyl)oxy]-2-methyl-N-[(2R)-1-(4-methylpiperazin-1-yl)hexan-2-yl]imidazo[1,2-a]pyridine-3-carboxamide]",0.30
3,"Cc1nc2c(OCc3c(F)cccc3F)cc(Cl)cn2c1C(=O)NCC(C)(N)CC(C)C (single isomer, unassigned) [Example 226, ent-N-(2-Amino-2,4-dimethylpentyl)-6-chloro-8-[(2,6-difluorobenzyl)oxy]-2-methylimidazo[1,2-a]pyridine-3-carboxamide]",0.10
4,"Cc1nc2c(OCc3c(F)cccc3F)cc(Cl)cn2c1C(=O)NCCC1(N)CCCCC1 [Example 33, N-[2-(1-Aminocyclohexyl)ethyl]-6-chloro-8-[(2,6-difluorobenzyl)oxy]-2-methylimidazo[1,2-a]-pyridine-3-carboxamide]",0.30
5,"CCCC(C)(N)CNC(=O)c1c(C)nc2c(OCc3c(F)cccc3F)cc(C)cn12 (single isomer, unassigned) [Example 234, ent-N-(2-Amino-2-methylpentyl)-8-[(2,6-difluorobenzyl)oxy]-2,6-dimethylimidazo[1,2-a]pyridine-3-carboxamide]",0.03
6,"Cc1cc(OCc2c(F)cccc2F)c2nc(C)c(C(=O)NCC(C)(N)C3CC3)n2c1 (single isomer, unassigned; enantiomer a) [Example 260, ent-N-(2-Amino-2-cyclopropylpropyl)-8-[(2,6-difluorobenzyl)oxy]-2,6-dimethylimidazo[1,2-a]-pyridine-3-carboxamide (Enantiomer A)]",0.10
7,"Cc1nc2c(OCc3c(F)cccc3F)cccn2c1C(=O)NC12CNCCC1C2 (single isomer, unassigned) [Example 184, ent-N-(3-Azabicyclo[4.1.0]hept-1-yl)-8-[(2,6-difluorobenzyl)oxy]-2-methylimidazo[1,2-a]pyridine-3-carboxamide]",1.00
8,"Cc1nc2c(OCc3c(F)cccc3F)cc(Cl)cn2c1C(=O)NCC(N)CC(F)(F)F (single isomer, unassigned) [Example 193, ent-N-(2-Amino-4,4,4-trifluorobutyl)-6-chloro-8-[(2,6-difluorobenzyl)oxy]-2-methylimidazo[1,2-a]pyridine-3-carboxamide]",1.00
9,"Cc1cc(OCc2c(F)cccc2F)c2nc(C)c(C(=O)NC(CN)c3cccc(OC(F)(F)F)c3)n2c1 (racemic) [Example 380, rac-N-{2-amino-1-[3-(trifluoromethoxy)phenyl]ethyl}-8-[(2,6-difluorobenzyl)oxy]-2,6-dimethylimidazo[1,2-a]pyridine-3-carboxamide]",1.00
10,"Cc1nc2c(OCc3c(F)cccc3F)cccn2c1C(=O)NCCNC(C)C [Example 130, 8-[(2,6-difluorobenzyl)oxy]-N-[2-(isopropylamino)ethyl]-2-methylimidazo[1,2-a]-pyridine-3-carboxamide]",1.00
11,"Cc1nc2c(OCc3c(F)cccc3F)cccn2c1C(=O)NCC(C)(N)CC(C)C (racemic) [Example 202, rac-N-(2-Amino-2,4-dimethylpentyl)-8-[(2,6-difluorobenzyl)oxy]-2-methylimidazo[1,2-a]pyridine-3-carboxamide]",0.10
12,"Cc1nc2c(OCc3c(F)cccc3F)cccn2c1C(=O)NC1CNc2ccccc21 (single isomer, unassigned; ent-8) [Example 47, ent-8-[(2,6-Difluorobenzyl)oxy]-N-(2,3-dihydro-1H-indol-3-yl)-2-methylimidazo[1,2-a]pyridine-3-carboxamide]",0.30
13,"Cc1nc2c(OCc3c(F)cccc3F)cccn2c1C(=O)NCC(N)C(F)(F)F (single isomer, unassigned) [Example 209, ent-N-(2-Amino-3,3,3-trifluoropropyl)-8-[(2,6-difluorobenzyl)oxy]-2-methylimidazo[1,2-a]-pyridine-3-carboxamide]",0.30
14,"CCCC(C)(N)CNC(=O)c1c(CC)nc2c(OCc3c(F)cccc3F)cc(C)cn12 (racemic) [Example 301, rac-N-(2-amino-2-methylpentyl)-8-[(2,6-difluorobenzyl)oxy]-2-ethyl-6-methylimidazo[1,2-a]pyridine-3-carboxamide]",0.10
15,"Cc1nc2c(OCc3c(F)cccc3F)cc(Cl)cn2c1C(=O)NCC1CCCCN1 (single isomer, unassigned; ent-6) [Example 191, ent-6-Chloro-8-[(2,6-difluorobenzyl)oxy]-2-methyl-N-(piperidin-2-ylmethyl)imidazo[1,2-a]-pyridine-3-carboxamide]",1.00
16,"Cc1cc(OCc2c(F)cccc2F)c2nc(C)c(C(=O)NC3CCC3(C)N)n2c1 (single isomer, unassigned; enantiomer a) [Example 332, ent-N-[2-amino-2-methylcyclobutyl]-8-[(2,6-difluorobenzyl)oxy]-2,6-dimethylimidazo[1,2-a]pyridine-3-carboxamide (Enantiomer A)]",1.00
17,"COc1ccc(CC(C)(N)CNC(=O)c2c(C)nc3c(OCc4c(F)cccc4F)cc(C)cn23)cc1 (racemic) [Example 368, rac-N-[2-amino-3-(4-methoxyphenyl)-2-methylpropyl]-8-[(2,6-difluorobenzyl)oxy]-2,6-dimethylimidazo[1,2-a]pyridine-3-carboxamide]",0.10
18,"Cc1nc2c(OCc3c(F)cccc3F)cc(Cl)cn2c1C(=O)NCC1CCCCN1 (single isomer, unassigned; ent-6) [Example 190, ent-6-Chloro-8-[(2,6-difluorobenzyl)oxy]-2-methyl-N-(piperidin-2-ylmethyl)imidazo[1,2-a]-pyridine-3-carboxamide]",1.00
19,"CCCC(C)(N)CNC(=O)c1c(C)nc2c(OCc3c(F)cccc3F)cc(C(F)F)cn12 (single isomer, unassigned; enantiomer b) [Example 290, ent-N-(2-amino-2-methylpentyl)-8-[(2,6-difluorobenzyl)oxy]-6-(difluoromethyl)-2-methyl-imidazo[1,2-a]pyridine-3-carboxamide (Enantiomer B)]",0.3
20,"Cc1cc(OCc2c(F)cccc2F)c2nc(C)c(C(=O)NCC3CN(Cc4ccccc4)CCO3)n2c1 (racemic) [Example 344, rac-N-[(4-benzylmorpholin-2-yl)methyl]-8-[(2,6-difluorobenzyl)oxy]-2,6-dimethylimidazo[1,2-a]pyridine-3-carboxamide]",1.00

# From US20150274719A1, “AMINO-SUBSTITUTED IMIDAZO[1,2-A]PYRIDINECARBOXAMIDES AND THEIR USE” (BAYER PHARMA AKTIENGESELLSCHAFT, priority 2012, published 2015)
